Ten compounds from ChEMBL document CHEMBL1201862, “PubChem BioAssay data set” (2004) can be followed below.

Several values for one entry are separate records, joined by “and”; a condition that tells them apart may be missing. Equal entries are not always repeated.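 Five concentrations, 48 hours, 96-well plates. GI50 = concentration required for 50% inhibition of growth.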 Activity calls are given as the source filed them. Rule as the data show it: active = GI50 up to about 1.1 µM and inactive = higher.

Some test systems named below: 786-0; ACHN; BT-549; CAKI-1; HOP-62; HOP-92; Hs-578T; MDA-MB-435; NCI/ADR-RES; PC-3; RPMI-8226; SF-268; SF-295; SK-MEL-5; SN12C; SNB-19; T47D; TK-10; UACC-62; HCC 2998.
What all share (assay): inhibition of tumour cell growth, NCI panel, 48 h

In the case of `c1ccc(CCc2cccnc2)nc1`, the GI50 in the experiment on 786-0, in the experiment on ACHN, in the experiment on BT-549, in the experiment with CAKI-1, in the experiment on HOP-62 and in the experiment with HOP-92 was > 100 µM (inactive) each time. In addition, the GI50 in the experiment on Hs-578T, with MDA-MB-435, with NCI/ADR-RES, in the experiment with PC-3, in the experiment with RPMI-8226 and in the experiment with SF-268 was > 100 µM (inactive) each time. For the same compound, the GI50 with SF-295, in the experiment with SK-MEL-5, in the experiment on SN12C, with SNB-19, in the experiment with T47D and with TK-10 was > 100 µM (inactive) each time. For the same compound, the GI50 with UACC-62 is > 100 µM (inactive).
As to `CC(N/N=C(\S)N1CCN(c2ccccn2)CC1)c1nccc2ccccc12` (configuration not stated), the GI50 was 0.693 µM (active) in the experiment with 786-0; 0.838 µM (active) in the experiment with ACHN; 10.4 µM (inactive) in the experiment on BT-549; 1.61 µM (inactive) in the experiment on CAKI-1; 0.769 µM (active) in the experiment on HCC 2998; 2.86 µM (inactive) in the experiment with HOP-62. Moreover, the GI50 in the experiment with HOP-92 was 0.957 µM (active); with Hs-578T, 12.9 µM (inactive); in the experiment on MDA-MB-435, 1.66 µM (inactive); in the experiment on NCI/ADR-RES, < 0.0216 µM (active); with PC-3 it was 0.589 µM (active); with SF-268, 0.514 µM (active). Also, the GI50 with SF-295 was 1.3 µM (inactive); with SK-MEL-5, 0.897 µM (active); in the experiment on SN12C, 0.927 µM (active); in the experiment on SNB-19, 2.56 µM (inactive); in the experiment with T47D, < 0.01 µM (active); with TK-10, 1.64 µM (inactive). The GI50 with UACC-62 is 0.305 µM (active).
As for `COc1cc(N(C)C)c(OC)cc1C=C1C=CC=C1`, the GI50 in the experiment with 786-0 was > 100 µM (inactive); in the experiment on ACHN it was > 100 µM (inactive); in the experiment on BT-549 it was > 100 µM (inactive); in the experiment on HCC 2998 it was > 100 µM (inactive); with HOP-62, > 100 µM (inactive); with HOP-92, 61.8 µM (inactive). For the same compound, the GI50 is > 100 µM (inactive) with Hs-578T; 43.1 µM (inactive) in the experiment on MDA-MB-435; 74.6 µM (inactive) in the experiment with NCI/ADR-RES; > 100 µM (inactive) in the experiment with PC-3; > 100 µM (inactive) in the experiment with SF-268; > 100 µM (inactive) in the experiment on SF-295. Further, the GI50 in the experiment on SK-MEL-5 was > 100 µM (inactive); in the experiment on SN12C it was > 100 µM (inactive); in the experiment on SNB-19 it was > 100 µM (inactive); in the experiment with T47D, 41.3 µM (inactive); in the experiment with TK-10, > 100 µM (inactive); in the experiment with UACC-62, 82.4 µM (inactive).
On to `CC(C)C(C)/C=C\C(C)C1CCC2C3=CC=C4CC(O)CCC4(C)C3CCC21C` (configuration not stated), for which the GI50 in the experiment with 786-0 was > 43.2 µM (inactive); with ACHN it was > 42 µM (inactive); in the experiment on BT-549, > 50.4 µM (inactive); in the experiment with CAKI-1, > 43.7 µM (inactive); in the experiment on HOP-62, > 51.1 µM (inactive); in the experiment on HOP-92, 5.75 µM (inactive). Further, the GI50 with Hs-578T is > 41.3 µM (inactive); in the experiment with MDA-MB-435, 41.1 µM (inactive); with NCI/ADR-RES it was > 41.3 µM (inactive); with PC-3, > 56.2 µM (inactive); with RPMI-8226, 29.3 µM (inactive); in the experiment with SF-268 it was > 42.7 µM (inactive). The GI50 was > 64.9 µM (inactive) in the experiment with SF-295; 23.8 µM (inactive) in the experiment on SK-MEL-5; > 42.1 µM (inactive) in the experiment on SN12C; > 74.5 µM (inactive) in the experiment with SNB-19; 81.5 µM (inactive) in the experiment on T47D; > 55 µM (inactive) in the experiment with TK-10. In addition, the GI50 in the experiment with UACC-62 is > 44.6 µM (inactive).
In the case of `O=c1c(-c2ccc(Cl)cc2)nnc2n(Cc3ccccc3)c3ccccc3n12`, the GI50 was 14.9 µM (inactive) with 786-0; 21.7 µM (inactive) in the experiment on ACHN; 22 µM (inactive) in the experiment on BT-549; 16.4 µM (inactive) in the experiment on CAKI-1; > 100 µM (inactive) in the experiment on HCC 2998; 23.6 µM (inactive) in the experiment with HOP-62. Besides, the GI50 in the experiment with HOP-92 was 14.7 µM (inactive); in the experiment on Hs-578T, 24 µM (inactive); in the experiment with MDA-MB-435, 4.28 µM (inactive); with NCI/ADR-RES, 52.7 µM (inactive); in the experiment on PC-3, 30.1 µM (inactive); in the experiment on SF-268, 23.3 µM (inactive). Also, the GI50 in the experiment on SF-295 is 19.1 µM (inactive); with SK-MEL-5, 41.1 µM (inactive); with SN12C it was 82.2 µM (inactive); in the experiment with SNB-19, 17.7 µM (inactive); in the experiment on T47D, 67.9 µM (inactive); in the experiment with TK-10 it was 20.6 µM (inactive).
Consider `CCNC(=S)/N=c1\sc(NCC)nc2sc3c(c12)CCN(N1CCc2c(sc4nc(NCC)s/c(=N\C(=S)NCC)c24)C1)C3`, for which the GI50 in the experiment with 786-0 was 26.6 µM (inactive); in the experiment on ACHN it was 62.8 µM (inactive); with BT-549 it was > 100 µM (inactive); in the experiment on CAKI-1, > 100 µM (inactive); in the experiment with HCC 2998, > 100 µM (inactive); in the experiment with HOP-62, 57.3 µM (inactive). Also, the GI50 in the experiment with HOP-92 is 5.31 µM (inactive); in the experiment with Hs-578T it was > 100 µM (inactive); in the experiment on MDA-MB-435, 97.5 µM (inactive); in the experiment with NCI/ADR-RES, > 100 µM (inactive); in the experiment with PC-3 it was > 100 µM (inactive); in the experiment on SF-268 it was > 100 µM (inactive). Moreover, the GI50 in the experiment on SF-295 is 72.4 µM (inactive); with SK-MEL-5, 31.8 µM (inactive); in the experiment with SN12C, > 100 µM (inactive); in the experiment on SNB-19, 74 µM (inactive); in the experiment on T47D, 42.4 µM (inactive); in the experiment on TK-10, > 100 µM (inactive). Besides, the GI50 in the experiment with UACC-62 was > 100 µM (inactive).
Regarding `CC1(C)OC[C@H](COCOP2(=O)Oc3ccc4ccccc4c3-c3c(ccc4ccccc34)O2)O1`, the GI50 was 35.5 µM (inactive) in the experiment with 786-0; 18 µM (inactive) with ACHN; 16.6 µM (inactive) with BT-549; 16.9 µM (inactive) in the experiment with HCC 2998; 21.4 µM (inactive) in the experiment with HOP-62; 14.6 µM (inactive) in the experiment with HOP-92. For the same compound, the GI50 was 47.5 µM (inactive) with Hs-578T; 13.7 µM (inactive) with MDA-MB-435; 18.3 µM (inactive) in the experiment on NCI/ADR-RES; 14.2 µM (inactive) in the experiment with PC-3; 16 µM (inactive) with SF-268; 17.6 µM (inactive) in the experiment with SF-295. Besides, the GI50 was 24.4 µM (inactive) in the experiment on SK-MEL-5; 16.4 µM (inactive) in the experiment with SN12C; 19.1 µM (inactive) in the experiment on SNB-19; 18.3 µM (inactive) in the experiment with T47D; 20.2 µM (inactive) in the experiment with TK-10; 17.2 µM (inactive) with UACC-62.
Take `NCCOCC(N)C(=O)O` (configuration not stated): the GI50 in the experiment on 786-0, with ACHN, in the experiment with BT-549, in the experiment with CAKI-1, in the experiment on HCC 2998 and in the experiment with HOP-62 was > 100 µM (inactive) in each case. Moreover, the GI50 with HOP-92, in the experiment with Hs-578T, in the experiment on MDA-MB-435, in the experiment on NCI/ADR-RES, in the experiment with PC-3 and with SF-268 was > 100 µM (inactive) in each case. The GI50 is > 100 µM (inactive) with SF-295; > 100 µM (inactive) and > 95.7 µM (inactive) in the experiment with SK-MEL-5; > 100 µM (inactive) in the experiment on SN12C; > 100 µM (inactive) with SNB-19; > 100 µM (inactive) in the experiment with T47D; > 100 µM (inactive) in the experiment with TK-10. Also, the GI50 in the experiment with UACC-62 was > 100 µM (inactive).
Turning to `O=c1[nH]c2cc([N+](=O)[O-])c(N/N=C/c3ccc(Cl)cc3Cl)c([N+](=O)[O-])c2[nH]1`, the GI50 with 786-0 was 32.1 µM (inactive); in the experiment with ACHN it was 39.8 µM (inactive); in the experiment with BT-549 it was > 100 µM (inactive); in the experiment on CAKI-1, > 100 µM (inactive); with HOP-62, 59.6 µM (inactive); with HOP-92, 32.9 µM (inactive). Moreover, the GI50 in the experiment on Hs-578T is 90.2 µM (inactive); in the experiment with MDA-MB-435, 5.21 µM (inactive); in the experiment on NCI/ADR-RES, 15.5 µM (inactive); with PC-3, > 100 µM (inactive); with RPMI-8226, 33.8 µM (inactive); in the experiment with SF-268 it was 75.3 µM (inactive). In addition, the GI50 was > 100 µM (inactive) in the experiment with SF-295; > 100 µM (inactive) with SK-MEL-5; 37.5 µM (inactive) in the experiment on SN12C; 64 µM (inactive) in the experiment with SNB-19; > 100 µM (inactive) in the experiment with T47D; 31.6 µM (inactive) in the experiment with TK-10. The GI50 in the experiment on UACC-62 is > 100 µM (inactive).
As for `COc1cc(=O)oc(/C=C/C=C/C=C/C(C)=C\C2(C)OC(C)C(C)(O)C2O)c1C` (configuration not stated), the GI50 with 786-0, in the experiment on ACHN, in the experiment with BT-549, in the experiment with CAKI-1, in the experiment with HOP-62 and in the experiment with HOP-92 was > 100 µM (inactive) each time. The GI50 in the experiment on Hs-578T is 0.923 µM (active); in the experiment with MDA-MB-435, > 100 µM (inactive); with NCI/ADR-RES, > 100 µM (inactive); with PC-3 it was > 100 µM (inactive); in the experiment on RPMI-8226, > 100 µM (inactive); in the experiment with SF-268 it was > 100 µM (inactive). In addition, the GI50 in the experiment with SF-295, in the experiment with SK-MEL-5, in the experiment with SN12C, in the experiment on SNB-19, with T47D and with TK-10 was > 100 µM (inactive) throughout. The GI50 with UACC-62 is > 100 µM (inactive).
